Columns and labels:
[1] = target: T1, hSERT (Homo sapiens, UniProt P31645); assay: SERT [3H]-citalopram competition radioligand binding, hSERT expressing HEK293 cell membranes
T1 construct: no vendor name is printed for this cell line) RBHSTM-K; host or cells: HEK293
Method: Valiscreen Serotonin Transporter (SERT) (Human) Cell Line (HEK293 host cells, Product No: RBHSTM-K) grown in DMEM/F12 media with 10% FBS, 0.1 mg/ml Geneticin, 1% GlutaMAX, and 1% Penicillin-Streptomycin added were used to prepare SERT membrane fractions. Cells were grown in 150 mm dishes and harvested between 70-90% confluency, passages 5-20. Cells were detached using a buffer containing 1 mM HEPES and 2 mM EDTA (pH 7.4). After detachment, the cells were homogenized using a handheld homogenizer, and the lysate was centrifuged (30 minutes at 30,000×G) at 4 ° C The resulting pellet was resuspended in storage buffer containing 20 mM HEPES, 10 mM MgCl2, 0.1 mM EDTA, and 10% sucrose at pH 7.4. Protein concentration was determined via the Bradford method using Coomassie protein assay reagent (Sigma, USA) with Bovine Serum albumin (Sigma, USA) as standard.
Buffer containing 10 mM HEPES, 120 mM NaCl, and 5 mM KCl (pH 7.4) was added to SERT membranes to dilute to a final protein concentration of 5 µg/mL per well. Additionally, 0.5 nM [3H]-Citalopram (Perkin Elmer NET1039250UC) was added, along with unlabeled competitors at various concentrations or […] citalopram for nonspecific binding controls, bringing the total volume to 1 ml in a 96 well plate. SERT membranes were always added last to each well. The plates were covered from light with aluminum foil and incubated at ambient temperature ([…]) and placed on a mechanical shaker (250RPM) for 2 h. After 2 h, SERT protein was captured via vacuum filtration using a Unifilter-96 Cell Harvester (Perkin Elmer) over presoaked UniFilter-96 GF/C P Microplates (Perkin Elmer) and filters were washed with room temperature 10 mM HEPES, 120 mM NaCl, and 5 mM KCl buffer (pH 7.4) (3×1 mL). The filter plates were dried overnight in a fume hood. The next day, the SERT bound tritium was measured via liquid scintillation counting with MicroScint-O (Perkin Elmer), using a MicroBeta2 Plate Reader with 6-detectors scintillation counter (Perkin Elmer) at 55% efficiency. IC50 value estimates were determined in GraphPad Prism 9.3.1 using non-linear regression (single site fit) with log-concentration plotted against percent specific binding. […] For each experiments compounds were run in duplicate. N=1-3 repeats per compound.

[2] = target: NMDAR; assay: NMDA receptor [3H]-MK-801 competition radioligand binding in rat forebrain; settings: for NMDAR binding affinity pKi (mean ± SEM): [3H]-MK-801 1 nM competition, 1 mM glutamate, 0.1 mM glycine, pH 7.4, 2 h ambient, N = 1-4; for % inhibition of specific [3H]-MK-801 binding: at 10,000 nM
Method: Rat forebrains from 7-8 week old Sprague-Dawley rats (BioChemed, USA) were homogenized in a buffer containing 10 mM HEPES and 1 mM EDTA (pH 7.4) using a mechanical homogenizer (Janke-Kunkel Ultra-Turrax T25). A 10 mL volume was used per brain for all steps involving suspension of the brain homogenate tissue. The brain homogenate was then centrifuged (15 minutes at 20,000 RPM and 4 ° C). The supernatant was carefully poured off and the pellet was resuspended in fresh 10 mM HEPES and 1 mM EDTA containing buffer. This process was repeated 5 times. Following the 5th centrifugation, the buffer was replaced with a buffer containing 10 mM HEPES (pH 7.4). The homogenate was then incubated in a water bath at 37 ° C in the dark (covered with foil). Centrifugation was then repeated 3 additional times and after resuspending in the HEPES buffer, the final homogenate was aliquoted and stored at −80 ° C until use. Protein concentration of the homogenate was determined by utilizing the Bradford method using Coomassie protein assay reagent (Sigma, USA) with Bovine Serum albumin (Sigma, USA) as a standard.
At the time of the experiment, the homogenate was diluted to a final concentration of […] in 10 mM HEPES buffer, 1 mM glutamate, and 0.1 mM glycine (pH 7.4) and combined with 1 nM (+)-[3H]-MK-801 (Perkin Elmer NET972250UC), unlabeled competitor compounds at varying concentrations, or 30 uM MK-801 to determine non-specific binding, in a total volume of 1 mL in a 96 well plate. The protein homogenate is always added to the wells last. The plates were covered with aluminum foil, and placed on a mechanical shaker (250 RPM) for 2 h at ambient temperature ([…]). After 2 h, the homogenate was collected by vacuum filtration using a Unifilter-96 Cell Harvester (Perkin Elmer) over presoaked UniFilter-96 GF/C P Microplates (Perkin Elmer) and filters were washed with room temperature 10 mM HEPES buffer (pH 7.4) (3×1 mL). The filter plates were dried overnight in a fume hood. The next day, the bound tritium was measured via liquid scintillation counting with […] MicroScint-O (Perkin Elmer) added per well, using a MicroBeta2 Plate Reader with 6-detectors scintillation counter (Perkin Elmer) at 55% efficiency. IC50 value estimates were determined in GraphPad Prism 9.3.1 using non-linear regression (single site fit) with log-concentration plotted against percent specific binding. Ki values were calculated using the equation of Cheng and Prusoff. […] Experiments were performed in duplicate. N=1-4 per compound.

[3] = target: T2, human Dopamine Transporter (Homo sapiens, UniProt Q01959); assay: Human dopamine reuptake transporter (DAT) inhibition functional study, ASP+ uptake in CHO cells; format: cell-based; settings: at 10,000 nM, 10 μM ASP+, 1 h, CHO cells stably expressing human DAT
T2 construct: host or cells: CHO
T2 sequence (Q01959 whole entry): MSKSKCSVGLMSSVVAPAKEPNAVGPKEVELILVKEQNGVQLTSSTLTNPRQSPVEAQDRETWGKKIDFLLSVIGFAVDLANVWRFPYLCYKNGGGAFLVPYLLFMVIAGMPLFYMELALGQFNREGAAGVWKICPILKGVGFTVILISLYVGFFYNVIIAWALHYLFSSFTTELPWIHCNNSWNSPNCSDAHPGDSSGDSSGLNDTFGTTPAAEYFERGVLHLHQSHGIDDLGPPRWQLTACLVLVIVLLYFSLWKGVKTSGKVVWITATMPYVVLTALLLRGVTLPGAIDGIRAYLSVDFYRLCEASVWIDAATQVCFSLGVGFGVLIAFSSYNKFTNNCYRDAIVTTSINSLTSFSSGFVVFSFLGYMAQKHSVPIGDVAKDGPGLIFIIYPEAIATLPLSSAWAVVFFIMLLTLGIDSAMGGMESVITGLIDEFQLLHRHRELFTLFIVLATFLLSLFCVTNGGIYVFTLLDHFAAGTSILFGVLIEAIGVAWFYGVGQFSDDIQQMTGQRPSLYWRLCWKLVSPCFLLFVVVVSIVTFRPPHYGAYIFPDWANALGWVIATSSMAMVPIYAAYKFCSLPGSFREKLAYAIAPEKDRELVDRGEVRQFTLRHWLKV
Method: CHO cells stably expressing human Dopamine Transporter Protein (Valiscreen® Perkin Elmer RBHDATM-K) were cultured in 150 mm Tissue Culture dishes (Cell Treat 229651) at 37 ° C and 5% CO2. Ham's F-12 Nutrient Mix (Gibco, USA) was supplemented with 10% dialyzed FBS (Gibco, USA), 100 µg/ml Geneticin (Gibco, USA), and 100 units/ml Penicillin and Streptomycin (Gibco, USA) as the culture media. Cells were maintained on a consistent splitting and assay schedule and utilized until passage 30 (no change in control experiments were observed up to this point).
Cells were detached from their growth dishes using Trypsin-EDTA (0.25%) (Gibco, USA) at 70-80% confluency. The cells were counted and diluted in culture media to a density of 300,000 cells/mL. 200 µl of this mixture was added to each well of a clear bottom, black-walled 96 well plate (Coming 3603, USA). Plates were incubated in the laminar flow hood for one hour prior to being placed in the cell culture incubator in order to encourage even cell distribution across the entire well surface.
The next day, Krebs-Ringer HEPES (KRH) Buffer pH 7.4 was prepared (10 mM HEPES, 130 mM NaCl, 1.3 mM KCl, 2.2 mM CaCl2, 1.2 mM MgSO4, 1.2 mM KH2PO4) and titrated with 6N NaOH. This buffer was stored in a 4 ° C refrigerator for up to 4 days (after which it was discarded). Additionally, a solution containing KRH buffer and 330 µM Trypan Blue (Sigma T6146-25G), a solution of 20 mM ASP+(MedChem Express, NJ, USA) dissolved in DMSO, were both prepared. The 20 mM DMSO stock of ASP+ was diluted to a working concentration of 40 µM in KRH buffer. DMSO solutions of 40 mM GBR-12935 dihydrochloride (MedChem Express, NJ, USA) and 40 mM test compounds were also prepared. DMSO solutions of test compounds were then diluted to a range of […]-40 μM in KRH Buffer with 1% additional DMSO added to provide consistent DMSO concentration in all samples. […] The final DMSO concentration in each well was 0.3%. […] KRH buffer with DMSO “vehicle control” served as the total fluorescence control to represent the maximum amount of substrate uptake without DAT transporter inhibition.
At the time of assay, cell media was carefully removed from the wells via pipette aspiration. 100 μL of KRH buffer was then added to all wells. Both controls, non-specific and total fluorescence stock solutions were then added to the plate (50 µL of either 400 µM GBR-12935 or KRH DMSO buffer respectively). Additionally, GBR-12935 and test compounds were added to the plate ([…] for each sample). The 10,000 nM concentration of test compound was run in triplicate wells. Next, […] ASP+(final concentration of 10 μM) was added to each well initiating the experiment. Cells were placed in the cell culture incubator for one hour, at which point 20 µL of 330 µM Trypan Blue was added to each well to quench extracellular fluorescence. The cells were then placed in the microplate reader (BioTek Synergy Neo 2), using Gen5 Ver 3.11 software. The reader was preheated to 37 ° C and following a brief orbital shake, intracellular fluorescence was measured using a fluorescence intensity reading. Intracellular ASP+ was excited at 430 nm and emission read at 510 nm via a bottom read using the extended gain settings and high lamp energy setting.

T1 sequence (P31645 whole entry): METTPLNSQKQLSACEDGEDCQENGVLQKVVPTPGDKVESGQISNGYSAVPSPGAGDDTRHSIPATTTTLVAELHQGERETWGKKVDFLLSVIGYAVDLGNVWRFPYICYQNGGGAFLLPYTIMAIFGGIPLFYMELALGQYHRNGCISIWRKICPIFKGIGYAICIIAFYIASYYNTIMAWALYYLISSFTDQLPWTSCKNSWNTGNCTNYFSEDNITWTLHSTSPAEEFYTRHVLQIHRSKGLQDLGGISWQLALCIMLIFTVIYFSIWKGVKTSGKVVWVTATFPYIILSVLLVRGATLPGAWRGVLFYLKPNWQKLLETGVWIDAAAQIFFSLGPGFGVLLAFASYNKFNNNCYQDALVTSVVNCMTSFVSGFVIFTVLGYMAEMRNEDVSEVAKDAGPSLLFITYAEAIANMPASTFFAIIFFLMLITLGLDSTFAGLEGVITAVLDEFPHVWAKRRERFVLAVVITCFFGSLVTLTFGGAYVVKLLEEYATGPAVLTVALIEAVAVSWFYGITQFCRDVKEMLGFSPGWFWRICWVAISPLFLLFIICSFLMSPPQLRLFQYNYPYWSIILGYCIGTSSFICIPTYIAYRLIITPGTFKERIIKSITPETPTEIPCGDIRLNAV

| SMILES | NMDAR binding affinity pKi (mean ± SEM) [2] | inhibition at 10 µM [3] | other results |
| --- | --- | --- | --- |
| CC(N)(c1ccccc1)C1CC1 (stereo not shown) [Compound 2, 1-cyclopropyl-1-phenylethan-1-amine] | 6.19 ± 0.162 | – | IC50 [1]: > 10 µM |
| CC(N)(c1ccccc1)C1CCCC1 (stereo not shown) [Compound 3, 1-cyclopentyl-1-phenylethan-1-amine] | 7.11 ± 0.041 | 16.8% | IC50 [1]: > 10 µM |
| CCC(N)(c1ccccc1)C1CCCC1 (stereo not shown) [Compound 4, 1-cyclopentyl-1-phenylpropan-1-amine] | 6.64 ± 0.101 | 24.3% | IC50 [1]: > 10 µM |
| NC(c1ccccc1)(C1CCCC1)C1CCC1 (stereo not shown) [Compound 7, Cyclobutyl(cyclopentyl)(phenyl)methanamine] | 5.63 ± 0.029 | 24.1% | – |
| C=CCCC(N)(c1ccccc1)C1CCCC1 (stereo not shown) [Compound 8, 1-cyclopentyl-1-phenylpent-4-en-1-amine] | 6.24 ± 0.444 | 3.1% | – |
| C=CC(N)(c1ccccc1)C1CCCC1 (stereo not shown) [Compound 10, 1-cyclopentyl-1-phenylprop-2-en-1-amine] | 6.05 | – | – |
| COc1cccc(C(C)(N)C2CCCC2)c1 (stereo not shown) [Compound 13, 1-cyclopentyl-1-(3-methoxyphenyl)ethan-1-amine] | 6.82 ± 0.039 | – | – |
| CCCC(N)(c1ccccc1)C1CCCC1 (stereo not shown) [Compound 14, 1-cyclopentyl-1-phenylbutan-1-amine] | 5.94 ± 0.166 | – | – |
| CC(NC1CCC1)(c1ccccc1)C1CCCC1 (stereo not shown) [Compound 21, N-(1-cyclopentyl-1-phenylethyl)cyclobutanamine] | 8.06 ± 0.021 | 87.3% | – |
| CC(c1ccccc1)(C1CCCC1)N1CCCCC1 (stereo not shown) [Compound 22, 1-(1-cyclopentyl-1-phenylethyl)piperidine] | 6.08 ± .0633 | – | Ki ([1]; 0.5 nM [3H]-citalopram competition, hSERT HEK293 membranes, pH 7.4, 2 h ambient, N = 1, read-out: SERT pKi (converted)): 0.479 µM |
| CC(C)C(C)(N)c1ccccc1 (stereo not shown) [Compound 25, 3-methyl-2-phenylbutan-2-amine] | 5.86 ± 0.044 | 37.6% | – |
| NC(c1ccccc1)C1CCCC1 (stereo not shown) [Compound 27, Cyclopentyl(phenyl)methanamine] | < 5.00 | – | % inhibition of specific [3H]-MK-801 binding [2]: 32.4% |
| NC(c1ccccc1)C1CCCCC1 (stereo not shown) [Compound 28, Cyclohexyl(phenyl)methanamine] | 4.97 ± 0.054 | 17.9% | – |
| C=CCC(N)c1ccccc1 (stereo not shown) [Compound 30, 1-phenylbut-3-en-1-amine] | < 5.00 | – | % inhibition of specific [3H]-MK-801 binding [2]: 43.9% |
| CCCNC(c1ccccc1)C1CCCCC1 (stereo not shown) [Compound 31, N-(cyclohexyl(phenyl)methyl)propan-1-amine] | 5.76 | – | – |
| CCNC(c1ccccc1)C1CCCC1 (stereo not shown) [Compound 32, N-(cyclopentyl(phenyl)methyl)ethanamine] | 5.85 | – | – |
| CC(N)(c1ccccc1)C1CCC1 (stereo not shown) [Compound 47, 1-cyclobutyl-1-phenylethan-1-amine] | 6.75 ± 0.016 | – | – |
| CC(N)(c1ccc(F)cc1)C1CCCC1 (stereo not shown) [Compound 48, 1-cyclopentyl-1-(4-fluorophenyl)ethan-1-amine] | 6.96 ± 0.019 | – | – |
| COc1ccc(C(C)(N)C2CCCC2)cc1 (stereo not shown) [Compound 49, 1-cyclopentyl-1-(4-methoxyphenyl)ethan-1-amine] | 6.49 ± 0.0039 | – | – |
| CC(N)(c1cccc(C(F)(F)F)c1)C1CCCC1 (stereo not shown) [Compound 50, 1-cyclopentyl-1-(3-(trifluoromethyl)phenyl)ethan-1-amine] | 5.86 ± 0.11 | – | – |
| CC(N)(c1cc2ccccc2s1)C1CCCC1 (stereo not shown) [Compound 51, 1-(benzo[b]thiophen-2-yl)-1-cyclopentylethan-1-amine] | < 5.00 | – | % inhibition of specific [3H]-MK-801 binding [2]: 34.6% |
| C#CC(N)(c1ccccc1)C1CCCC1 (stereo not shown) [Compound 53, 1-cyclopentyl-1-phenylprop-2-yn-1-amine] | < 5.00 | – | % inhibition of specific [3H]-MK-801 binding [2]: 45.0% |
